Measurements reported in US7148028B2, “Methods and means relating to atherosclerosis” (priority 2001, dated 2006).
“And” between values parts separate entries of the source, which are not always exact repeats. Equal entries are not always repeated. “Also recorded” adds a separate entry of the source. Structures can show the parent of a compound that is named as a salt. Where two headings read alike, the source gives them in different places.

Experiments:
[1] = system: Chlamydia pneumoniae or Chlamydia Psittaci; format: biochemical
lesion IgG = experiment: LDL peroxidation by lesion IgG (MDA); format: biochemical, human
anti-Chlamydia abzymes [2] = format: biochemical, human; design: key to In-vitro Inhibition: + = inhibition; − = no inhibition
anti-Chlamydia abzymes [3] = format: in vivo, human; details: for abzyme activity of individuals, + aspirin: self-reported aspirin takers, one value per individual
[4] = Clinical condition, modified Rose-Blackburn Questionnaire; format: in vivo, human
Excerpt: The progression of the clinical condition of the patients was monitored by the use of the modified Bruce Protocol for treadmill exercise/stress ECG testing and on the Rose-Blackburn Questionnaire (Cardiovascular Survey Methods. WHO, Geneva, 1968)

[5] = 10 μM of each agent, control 24.3

Triton X-100
development of lipid oxidation reaction after treatment of Chlamydia with chaotropic agents [1]: completely abrogated
oxidation of the lipids in the bacteria by the extracted abzymes after detergent treatment [1]: abolished

O=C(O)c1ccccc1 [benzoic acid]
Level of MDA production by 0.82 μg of lesion IgG (lesion IgG; pH 5.6): 0 µM

C=O [formalin]
lipid oxidising reaction with treated Chlamydia samples [1]: no lipid oxidising reaction

O=[N+]([O-])OCC(CO[N+](=O)[O-])O[N+](=O)[O-] [Glyceryl Trinitrate]
Anti-Abzyme accivity (anti-Chlamydia abzymes [2]; 4.4 μM, control 21.7): 0 μM MDA/ml
Anti-Abzyme accivity (anti-Chlamydia abzymes [2]; 22 μM, control 21.7): 0 μM MDA/ml
Anti-Abzyme accivity (anti-Chlamydia abzymes [2]; 44 μM, control 21.7): 0 μM MDA/ml
Anti-Abzyme accivity (anti-Chlamydia abzymes [2]; 220 μM, control 21.7): 0 μM MDA/ml

Heparin
Anti-Abzyme accivity (anti-Chlamydia abzymes [2]; 0.1 mg/ml, control 21.7): 19.7 μM MDA/ml

CC(=O)Oc1ccccc1C(=O)O [Aspirin, acetylsalicylic acid]
Result (inhibition of anti-Chlamydia abzymes) (anti-Chlamydia abzymes [2]; 10 μM of each agent): Positive
Lipid oxidising activity of anti-Chlamydia abzymes (anti-Chlamydia abzymes [2]; [5]): 6.2 μM MDA/ml
abzyme activity after a week (anti-Chlamydia abzymes [3]; 250 mg aspirin daily, the other two CHD patients): undetectably low level
abzyme activity, aspirin alone (anti-Chlamydia abzymes [3]; Therapy Group D, 250 mg daily): reduction in the abzyme activity but to a lesser degree than observed with the combination
individuals positive for abzymes / individuals, + aspirin (anti-Chlamydia abzymes [3]; stable angina class I): 1/6
percentage positive for abzymes, + aspirin (anti-Chlamydia abzymes [3]; stable angina class I): 17%
abzyme activity, group mean, + aspirin (anti-Chlamydia abzymes [3]; stable angina class I, n = 6, without aspirin 30.0): 10.0
abzyme activity of individuals, + aspirin (anti-Chlamydia abzymes [3]; stable angina class I): 5 and 45 and 0 (3×) and 10
individuals positive for abzymes / individuals, + aspirin (anti-Chlamydia abzymes [3]; stable angina class II): 4/15
percentage positive for abzymes, + aspirin (anti-Chlamydia abzymes [3]; stable angina class II): 27%
abzyme activity, group mean, + aspirin (anti-Chlamydia abzymes [3]; stable angina class II, n = 15, without aspirin 32.2): 9.2
abzyme activity of individuals, + aspirin (anti-Chlamydia abzymes [3]; stable angina class II): 5 (4×) and 10 (2×) and 0 (4×) and 25 and 3.3 and 30
individuals positive for abzymes / individuals, + aspirin (anti-Chlamydia abzymes [3]; stable angina class III): 6/10
percentage positive for abzymes, + aspirin (anti-Chlamydia abzymes [3]; stable angina class III): 60%
abzyme activity of individuals, + aspirin (anti-Chlamydia abzymes [3]; stable angina class III): 0 (3×) and 45 and 5 and 35 and 15 and 30 and 20
individuals positive for abzymes / individuals, + aspirin (anti-Chlamydia abzymes [3]; unstable angina IV): 6/7
percentage positive for abzymes, + aspirin (anti-Chlamydia abzymes [3]; unstable angina IV): 86%
abzyme activity of individuals, + aspirin (anti-Chlamydia abzymes [3]; unstable angina IV): 130 and 70 and 0 and 37 and 90 and 100 and 180

CCC[C@@H]1C[C@@H](C(=O)N[C@@H]([C@H]2O[C@H](SC)[C@H](O)[C@@H](O)[C@H]2O)[C@@H](C)O)N(C)C1 [Lincomycin Hydrochloride]
Anti-Abzyme accivity (anti-Chlamydia abzymes [2]; 6.5 μM, control 21.7): 28.5 μM MDA/ml
Anti-Abzyme accivity (anti-Chlamydia abzymes [2]; 13 μM, control 21.7): 30.3 μM MDA/ml

C[S+](C)[O-] [DMSO]
Level of MDA production by 0.82 μg of lesion IgG (lesion IgG; +1% antioxidant, LDL 480 μg of protein, control 0.49 ± 0.023): 0 µM
development of lipid oxidation reaction after treatment of Chlamydia with chaotropic agents [1]: completely abrogated

CCN(CC)C(=S)S [DDC]
In-vitro Inhibition (anti-Chlamydia abzymes [2]): +
Result (inhibition of anti-Chlamydia abzymes) (anti-Chlamydia abzymes [2]; 10 μM of each agent): Positive
Lipid oxidising activity of anti-Chlamydia abzymes (anti-Chlamydia abzymes [2]; [5]): 0 μM MDA/ml

O=C(O)CN(CCN(CC(=O)O)CC(=O)O)CCN(CC(=O)O)CC(=O)O [DTPA]
Result (inhibition of anti-Chlamydia abzymes) (anti-Chlamydia abzymes [2]; 10 μM of each agent): Negative

CC[C@H]1OC(=O)[C@H](C)[C@@H](O[C@H]2C[C@@](C)(OC)[C@@H](O)[C@H](C)O2)[C@H](C)[C@@H](O[C@@H]2O[C@H](C)C[C@H](N(C)C)[C@H]2O)[C@](C)(O)C[C@@H](C)CN(C)[C@H](C)[C@@H](O)[C@]1(C)O [Azithromycin]
in vitro inhibition of abzyme activity (anti-Chlamydia abzymes [2]): strong in vitro inhibitor of abzyme activity
Lipid oxidising activity of anti-Chlamydia abzymes (anti-Chlamydia abzymes [2]; in DMSO, 5 μM, control 61, DMSO effect deducted): 0 μM MDA/ml
Clinical condition After 15 days of treatment ([4]; Table 17, anti-microbial agent only, single patients): angina class II;; also recorded: Stable condition;
Score by modified Rose-Blackburn Questionnaire, 60 days after start of the treatment, group mean ([4]; before: A 19.4 ± 1.79, B 20.4 ± 1.24, C 18.6 ± 0.81): 14.4 ± 1.14
Abzyme activity after 15 days / two weeks (anti-Chlamydia abzymes [3]; Example 8, stable angina patients): reduced abzyme activity
Anti-Chlamydia abzyme activity, 45 days, group mean (anti-Chlamydia abzymes [3]; Therapy Group A, before 47.5): 7.4 μM MDA/ml
Anti-Chlamydia abzyme activity, 60 days, group mean (anti-Chlamydia abzymes [3]; Therapy Group A, before 47.5): 1.6 μM MDA/ml

Igepal CA-630
development of lipid oxidation reaction after treatment of Chlamydia with chaotropic agents [1]: completely abrogated
oxidation of the lipids in the bacteria by the extracted abzymes after detergent treatment [1]: abolished

O=C[O-].[Na+] [sodium formate]
Level of MDA production by 0.82 μg of lesion IgG (lesion IgG; +0.1 M antioxidant, LDL 480 μg of protein, 16 h 37° C. pH 5.6, control 0.49 ± 0.023): 0 µM

CC(C)(S)[C@@H](N)C(=O)O [Penicillamine]
Result (inhibition of anti-Chlamydia abzymes) (anti-Chlamydia abzymes [2]; 10 μM of each agent): Positive
Lipid oxidising activity of anti-Chlamydia abzymes (anti-Chlamydia abzymes [2]; [5]): 0 μM MDA/ml

Nadroparin Calcium
Anti-Abzyme accivity (anti-Chlamydia abzymes [2]; 5 UI, control 21.7): 20.5 μM MDA/ml
Anti-Abzyme accivity (anti-Chlamydia abzymes [2]; 65 UI, control 21.7): 12.8 μM MDA/ml

O=[N+]([O-])O[C@H]1CO[C@H]2[C@@H]1OC[C@H]2O[N+](=O)[O-] [Isosorbide Dinitrate]
Anti-Abzyme accivity (anti-Chlamydia abzymes [2]; 42 μM, control 21.7): 0 μM MDA/ml
Anti-Abzyme accivity (anti-Chlamydia abzymes [2]; 211 μM, control 21.7): 0 μM MDA/ml

[N-]=[N+]=[N-].[Na+] [NaN1]
Result (inhibition of anti-Chlamydia abzymes) (anti-Chlamydia abzymes [2]; 10 μM of each agent): Positive
Lipid oxidising activity of anti-Chlamydia abzymes (anti-Chlamydia abzymes [2]; [5]): 0 μM MDA/ml

O=C(O)c1ccccn1 [Picolinic acid]
Result (inhibition of anti-Chlamydia abzymes) (anti-Chlamydia abzymes [2]; 10 μM of each agent): Positive
Lipid oxidising activity of anti-Chlamydia abzymes (anti-Chlamydia abzymes [2]; [5]): 0 μM MDA/ml

CCCCCCCCCCCCOS(=O)(=O)[O-].[Na+] [SDS]
lipid oxidising reaction with treated Chlamydia samples [1]: no lipid oxidising reaction

CC(C)NCC(O)COc1cccc2ccccc12 (stereo not shown) [Propranolol Hydrochloride]
Anti-Abzyme accivity (anti-Chlamydia abzymes [2]; Hydrochloride): 21.3 μM MDA/ml and 18.3 μM MDA/ml

N.N.O=S(=O)(O)O [ammonium sulphate]
lipid oxidising reaction with treated Chlamydia samples [1]: no lipid oxidising reaction
